Assays:
human mu opioid receptor = molecular target: T1, human mu opioid receptor (Homo sapiens, UniProt P35372); test: Human Mu Opioid Receptor Binding Assay (CHO membranes, 3H-Damgo); details: read-out: hKi μ
T1 construct: purchased Perkin Elmer RBHOMM400UA; host or cells: Chinese Hamster Ovary cells (recombinant expression)
Procedure: Membranes from Chinese Hamster Ovary cells expressing the human […] opioid receptor (Perkin Elmer #RBHOMM400UA) are homogenized in assay buffer (50 mM Tris, pH 7.5 with 5 mM MgCl2) using a glass tissue grinder, Teflon pestle and a Steadfast Stirrer (Fisher Scientific). The concentration of membranes is adjusted to 300 μg/mL in assay buffer and 100 μL is dispensed into each well of the assay plate, a 96 well round bottom polypropylene plate. Compounds to be tested are solubilized in DMSO (Pierce), 10 mM, then diluted in assay buffer to 6× the desired final concentration. The ligand, ^3H-Damgo (Perkin Elmer #NET-902) is also diluted in assay buffer to 3.6 nM. In a second 96 well round bottom polypropylene plate, known as the premix plate, 60 μL of the 6× compound is combined with 60 μL of 3.6 nM ^3H-Damgo. From this premix plate 50 μL is transferred to the assay plate containing the membranes, in duplicate. The assay plate is incubated for 2 h at room temperature. A GF/C 96 well filter plate (Perkin Elmer #6005174) is pretreated with 0.3% polyethylenimine for 30 min. The contents of the assay plate are filtered through the filter plate using a Packard Filtermate Harvester, and washed 3 times with 0.9% saline that is 4° C. The filter plate is dried, the underside sealed, and 30 μL Microscint20 (Packard #6013621) added to each well. A Topcount-NXT Microplate Scintillation Counter (Packard) is used to measure emitted energies in the range of 2.9 to 35 KeV. […] Nonspecific binding is determined in the presence of 1 μM unlabelled Damgo (Tocris #1171).

[1] = molecular target: T2, human delta subtype 2 opioid receptor (Homo sapiens, UniProt P41143); test: Human Delta Opioid Receptor Binding Assay (CHO membranes, 3H-Naltrindole); details: read-out: hKi δ
T2 construct: purchased Perkin Elmer RBHODM400UA; host or cells: Chinese Hamster Ovary cells (recombinant expression)
Procedure: This assay is designed to test the ability of a compound to interfere with the binding of tritiated Naltrindole to the human delta subtype 2 opioid receptor. Membranes from Chinese Hamster Ovary cells expressing the human delta subtype 2 opioid receptor (Perkin Elmer #RBHODM400UA) are homogenized in assay buffer (50 mM Tris, pH 7.5 with 5 mM MgCl2) using a glass tissue grinder, Teflon pestle and a Steadfast Stirrer (Fisher Scientific). The concentration of membranes is adjusted to 100 μg/mL in assay buffer and 100 μL is dispensed into each well of the assay plate, a 96 well round bottom polypropylene plate. Compounds to be tested are solubilized in DMSO (Pierce), 10 mM, then diluted in assay buffer to 6× the desired final concentration. The ligand, ^3H-Naltrindole (Perkin Elmer #NET-1065) is also diluted in assay buffer to 6 nM. In a second 96 well round bottom polypropylene plate, known as the premix plate, 60 μL of the 6× compound is combined with 60 μL of 6 nM ^3H-Naltrindole. From this premix plate 50 μL is transferred to the assay plate containing the membranes, in duplicate. The assay plate is incubated for 30 min at room temperature. A GF/C 96 well filter plate (Perkin Elmer #6005174) is pretreated with 0.3% polyethylenimine for 30 min. The contents of the assay plate are filtered through the filter plate using a Packard Filtermate Harvester, and washed 3 times with 0.9% saline that is 4° C. The filter plate is dried, the underside sealed, and 30 μL Microscint20 (Packard #6013621) added to each well. A Topcount-NXT Microplate Scintillation Counter (Packard) is used to measure emitted energies in the range of 2.9 to 35 KeV. Results are compared to maximum binding, wells receiving no inhibitors. Nonspecific binding is determined in the presence of 1 μM unlabelled Naltrindole (Sigma #N115).

[2] = molecular target: T3, mu opioid receptor (CHO-hMOR cell membranes) (Homo sapiens, UniProt P35372); test: Mu Opioid Receptor Functional Assay: [35S]GTPγS Binding in CHO-hMOR Cell Membranes, Versions 1 and 2; format: biochemical; details: for MOR GTP binding assay_v2 (% I): version 2, % inhibition of agonist-stimulated GTPγS binding; for EC50: version 2, read-out: MOR GTP binding assay v2 EC50
T3 construct: purchased Receptor Biology, Inc. (Baltimore, Md.); host or cells: CHO cells (recombinant expression)
Procedure: CHO-hMOR cell membranes were purchased from Receptor Biology, Inc. (Baltimore, Md.). About 10 mg/ml of membrane protein was suspended in 10 mM TRIS-HCl pH 7.2, 2 mM EDTA, 10% sucrose, and the suspension kept on ice. One ml of membranes was added to 15 ml cold binding assay buffer containing 50 mM HEPES, pH 7.6, 5 mM MgCl2, 100 mM NaCl, 1 mM DTT and 1 mM EDTA. The membrane suspension was homogenized with a Polytron and centrifuged at 3,000 rpm for 10 min. The supernatant was then centrifuged at 18,000 rpm for 20 min. The pellet was resuspended in 10 ml assay buffer with a Polytron.
The membranes were preincubated with wheat germ agglutinin coated SPA beads (Amersham) at 25° C. for 45 min in the assay buffer. The SPA bead (5 mg/ml) coupled membranes (10 μg/ml) were then incubated with 0.5 nM [^35S]GTPγS in the assay buffer. […] A range of concentrations of receptor agonists was used to stimulate [^35S]GTPγS binding. Both basal and non-specific binding was tested in the absence of agonist; non-specific binding determination included 10 μM unlabeled GTPγS.
Compounds were tested for function as antagonists by evaluating their potential to inhibit agonist-stimulated GTPγS binding. Radioactivity was quantified on a Packard TopCount. The following parameters were calculated:
[formula] % Inhibition=(% stimulation by 1 μM SNC80−% stimulation by 1 μM SNC80 in presence of test compound)×100/(% Stimulation by 1 μM SNC80−100)
EC50 values were calculated using GraphPad Prism.

T2 sequence (P41143 whole entry): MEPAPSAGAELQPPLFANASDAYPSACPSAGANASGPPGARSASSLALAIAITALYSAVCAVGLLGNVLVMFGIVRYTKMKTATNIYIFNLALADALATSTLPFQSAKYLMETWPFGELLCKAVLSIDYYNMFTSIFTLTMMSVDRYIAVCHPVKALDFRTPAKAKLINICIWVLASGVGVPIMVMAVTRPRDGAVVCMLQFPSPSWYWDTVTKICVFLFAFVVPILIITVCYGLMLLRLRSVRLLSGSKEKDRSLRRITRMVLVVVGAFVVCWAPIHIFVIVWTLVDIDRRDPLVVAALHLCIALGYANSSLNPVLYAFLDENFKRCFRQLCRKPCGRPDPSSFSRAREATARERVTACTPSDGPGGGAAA
T1 sequence (P35372 whole entry): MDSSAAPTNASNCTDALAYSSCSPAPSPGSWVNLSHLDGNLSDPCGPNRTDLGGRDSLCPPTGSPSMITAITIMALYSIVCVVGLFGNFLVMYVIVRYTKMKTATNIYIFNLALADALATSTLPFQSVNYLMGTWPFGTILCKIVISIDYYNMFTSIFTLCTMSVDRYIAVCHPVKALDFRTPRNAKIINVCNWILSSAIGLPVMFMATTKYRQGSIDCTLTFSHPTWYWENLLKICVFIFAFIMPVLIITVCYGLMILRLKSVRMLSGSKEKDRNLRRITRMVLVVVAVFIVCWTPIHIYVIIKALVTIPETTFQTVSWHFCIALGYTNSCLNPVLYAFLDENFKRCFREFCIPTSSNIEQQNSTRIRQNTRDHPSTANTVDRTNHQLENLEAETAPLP
T3 sequence (P35372 whole entry): as above

| Compound | Ki (human mu opioid receptor) | Ki [1] | MOR GTP binding assay_v2 (% I) [2] | EC50 [2] |
| --- | --- | --- | --- | --- |
| Cc1cc(O)cc(C)c1C[C@H](N)C(=O)N(C(C)C)[C@H](CO)c1nc(-c2ccccc2)c[nH]1 [Cpd 63] | 0.058 µM | 0.473 µM | – | – |
| Cc1[nH]c(CN(C(=O)[C@@H](N)Cc2ccc(O)cc2)C(C)C)nc1-c1ccsc1 [Cpd 152] | – | > 10 µM | – | – |
| Cc1cc(O)cc(C)c1C[C@H](N)C(=O)N(C(C)C)[C@@H](Cc1ccccc1)c1nc(-c2ccccc2)c[nH]1 [Cpd 159] | 0.0086 µM | 0.4 µM | – | – |
| COc1ccccc1-c1nc(CN(C(=O)[C@@H](N)Cc2c(C)cc(O)cc2C)C(C)C)[nH]c1C [Cpd 135] | 0.007 µM | 1.04 µM | – | – |
| Cc1cc(O)cc(C)c1C[C@H](N)C(=O)N(C(C)C)[C@@H](CC(C)C)c1nc(-c2ccccc2)c[nH]1 [Cpd 140] | 0.079 µM | 0.985 µM | – | – |
| Cc1cc(O)cc(C)c1C[C@H](N)C(=O)N(Cc1nc(-c2ccc(S(C)(=O)=O)cc2)c(C)[nH]1)C(C)C [Cpd 62] | 0.0024 µM | 0.069 µM | – | – |
| COC(=O)c1cccc(CN(C(=O)[C@@H](N)Cc2c(C)cc(O)cc2C)[C@@H](C)c2nc(-c3ccccc3)c[nH]2)c1 [Cpd 52] | 0.0121 µM | 0.066 µM | – | – |
| COc1ccc(-c2nc(CN(C(=O)[C@@H](N)Cc3c(C)cc(O)cc3C)C(C)C)[nH]c2C)cc1 [Cpd 125] | 0.0086 µM | 0.237 µM | – | – |
| Cc1cc(O)cc(C)c1C[C@H](N)C(=O)N(C(C)C)[C@@H](Cc1cccc(CN)c1)c1nc(-c2ccccc2)c[nH]1 [Cpd 120] | 0.0208 µM | 0.74 µM | – | – |
| Cc1cc(O)cc(C)c1CC(N)C(=O)N(Cc1ccccc1)C(C)c1nc(-c2ccc(F)cc2)c[nH]1 (stereo not drawn) [Cpd 83] | 0.00467 µM | 0.048 µM | – | – |
| Cc1cc(C(N)=O)cc(C)c1C[C@H](N)C(=O)N(Cc1ccccc1)[C@@H](C)c1nc(-c2ccc(F)cc2)c[nH]1 [Cpd 76] | 0.0016 µM | 0.0431 µM | – | – |
| Cc1cc(O)cc(C)c1C[C@H](N)C(=O)N(Cc1ccccc1)[C@@H](Cc1ccccc1)c1nc(-c2ccccc2)c[nH]1 [Cpd 105] | 0.41 µM | 0.742 µM | – | – |
| Cc1cc(O)cc(C)c1C[C@H](N)C(=O)N(Cc1cccc(Oc2ccccc2)c1)[C@@H](C)c1nc(-c2ccccc2)c[nH]1 [Cpd 98] | 0.048 µM | 0.054 µM | – | – |
| Cc1cc(O)cc(C)c1C[C@H](N)C(=O)N(Cc1cccc(Br)c1)[C@@H](C)c1nc(-c2ccccc2)c[nH]1 [Cpd 101] | 0.024 µM | 0.047 µM | – | – |
| Cc1cc(O)cc(C)c1C[C@H](N)C(=O)N(Cc1nc(-c2cccc3ccccc23)c(C)[nH]1)C(C)C [Cpd 156] | 0.00059 µM | 0.38 µM | – | – |
| CC(=O)Oc1ccc(CN(C(=O)[C@@H](N)Cc2c(C)cc(O)cc2C)[C@@H](C)c2nc(-c3ccccc3)c[nH]2)cc1 [Cpd 88] | 0.0058 µM | 0.0162 µM | – | – |
| Cc1cc(O)cc(C)c1C[C@H](N)C(=O)N(C(C)C)[C@@H](Cc1cccc(C(N)=O)c1)c1nc(-c2ccccc2)c[nH]1 [Cpd 121] | 0.0253 µM | 0.182 µM | – | – |
| Cc1cc(C(N)=O)cc(C)c1C[C@H](N)C(=O)N(Cc1ccccc1)[C@@H](C)c1nc(-c2ccc(C(F)(F)F)cc2)c(C)[nH]1 [Cpd 74] | 0.0098 µM | 0.063 µM | – | – |

| Compound | Ki (human mu opioid receptor) | Ki [1] | MOR GTP binding assay_v2 (% I) [2] | EC50 [2] |
| --- | --- | --- | --- | --- |
| CC(C)[C@@H](c1nc(-c2ccccc2)c[nH]1)N(C(=O)[C@@H](N)Cc1ccc(O)cc1)C(C)C [Cpd 161] | > 1 µM | > 10 µM | – | – |
| Cc1cc(O)cc(C)c1C[C@H](N)C(=O)N(Cc1nc(-c2cc(F)cc(F)c2)c(C)[nH]1)C(C)C [Cpd 126] | 0.0078 µM | 0.164 µM | – | – |
| Cc1cc(O)cc(C)c1C[C@H](N)C(=O)N(Cc1nc(-c2cc(F)ccc2F)c(C)[nH]1)C(C)C [Cpd 61] | 0.003 µM | 0.243 µM | – | – |
| Cc1cc(O)cc(C)c1C[C@H](N)C(=O)N(Cc1ccc2ccccc2c1)[C@@H](C)c1nc(-c2ccccc2)c[nH]1 [Cpd 100] | 0.02 µM | 0.088 µM | – | – |
| Cc1cc(O)cc(C)c1C[C@H](N)C(=O)N(C(C)C)[C@H](c1nc(-c2ccccc2)c[nH]1)C(C)C [Cpd 162] | 0.0076 µM | 0.173 µM | – | – |
| Cc1cc(C(N)=O)cc(C)c1C[C@H](N)C(=O)N(CCc1ccccc1)[C@H](C)c1nc(-c2ccccc2)c[nH]1 [Cpd 110] | 0.191 µM | 1.4 µM | – | – |
| Cc1cc(O)cc(C)c1C[C@H](N)C(=O)N(Cc1nc(-c2cccc(S(C)(=O)=O)c2)c(C)[nH]1)C(C)C [Cpd 72] | 0.00103 µM | 0.071 µM | – | – |
| COc1cccc(-c2nc(CN(C(=O)[C@@H](N)Cc3c(C)cc(O)cc3C)C(C)C)[nH]c2C)c1 [Cpd 142] | 0.0082 µM | 0.454 µM | – | – |
| Cc1cc(O)cc(C)c1C[C@H](N)C(=O)N[C@@H](CO)c1nc(-c2ccccc2)c[nH]1 [Cpd 119] | 0.185 µM | > 10 µM | – | – |
| Cc1cc(O)cc(C)c1C[C@H](N)C(=O)N(C(C)C)[C@H](C)c1nc(-c2ccc(F)cc2)c[nH]1 [Cpd 82] | 0.00239 µM | 0.046 µM | – | – |
| CC(C)N(C(=O)[C@@H](N)Cc1cccc(C(N)=O)c1)[C@@H](Cc1ccccc1)c1nc(-c2ccccc2)c[nH]1 [Cpd 136] | 0.726 µM | 1.61 µM | – | – |
| Cc1cc(O)cc(C)c1C[C@H](N)C(=O)N(Cc1nc(-c2cc(Cl)cc(Cl)c2)c(C)[nH]1)C(C)C [Cpd 141] | 0.052 µM | 0.252 µM | – | – |
| COC(=O)N[C@@H](Cc1c(C)cc(C(N)=O)cc1C)C(=O)N(Cc1ccc(OC)c(C(=O)OC)c1)[C@@H](C)c1nc(-c2ccccc2)c[nH]1 [Cpd 310] | – | – | 51.00% | 3.92 µM |
| Cc1cc(O)cc(C)c1C[C@H](N)C(=O)N(Cc1nc(-c2ccccc2-c2ccccc2)c(C)[nH]1)C(C)C [Cpd 145] | – | 0.267 µM | – | – |
| Cc1cc(C(N)=O)cc(C)c1C[C@H](N)C(=O)N(Cc1ccnc(C(=O)O)c1)[C@@H](C)c1nc(-c2ccccc2)c[nH]1 [Cpd 316] | – | – | 76% | 0.0241 µM |
| Cc1[nH]c(CN(C(=O)[C@@H](N)Cc2ccc(O)cc2)C(C)C)nc1-c1cccnc1 [Cpd 153] | – | > 10 µM | – | – |
| COc1ccc(CN(C(=O)[C@@H](N)Cc2c(C)cc(C(N)=O)cc2C)[C@@H](C)c2nc(-c3ccccc3)c[nH]2)cc1-c1nnn(C(C)(C)C)n1 [Cpd 309] | – | – | 47.00% | 0.023 µM |
| COC(=O)c1ccnc(CN(C(=O)[C@@H](N)Cc2c(C)cc(C(N)=O)cc2C)[C@@H](C)c2nc(-c3ccccc3)c[nH]2)c1 [Cpd 312] | – | – | 35.00% | 0.0587 µM |
